Results: US11319326B2, “Tricyclic fused derivatives of 1-(cyclo)alkyl pyrtdin-2-one useful for the treatment of cancer” (JUBILANT BIOSYS LIMITED, priority 2015, dated 2022)

System: MV4-11 cells
Assay: Anticancer activity: Alamar Blue 3-day proliferation assay
Format: cell-based
Details: AML cell line MV4-11, 72 h, read-out: MV4-11 EC50_μM
Description: Anticancer Activity: Alamar Blue Assay
The impact of the compounds on cancer cell proliferation was determined using the AML cell line MV4-11 (ATCC) in a 3-day proliferation assay. MV4-11 cells were maintained in RPMI supplemented with 10% FBS at 37° C., 5% CO2. For compound testing, MV4-11 cells were plated in a 96-well black bottom plate at a density of 15,000 cells/well in 100 μL culture media and incubated at 37° C. overnight. Compound dilution series were prepared in DMSO via a 3-fold serial dilution from 100 μM to 0.005 μM. The DMSO dilution series were then diluted with media, with the final compound concentrations added to the wells ranging from 10 μM to 0.0005 μM. […] The fluorescent readings from the Alamar Blue assay were normalized to the DMSO treated cells and analyzed using the GraphPad Prism software with sigmoidal curve fitting to obtain EC50.

CCNC(=O)CC1N=C(c2c(F)cccc2F)c2cc(OC)ccc2-c2cn(C)c(=O)cc21 (racemic) [Compound 38, ±2-(7-(2,6-difluorophenyl)-9-methoxy-2-methyl-3-oxo-3,5-dihydro-2H-benzo[c]pyrido[3,4-e]azepin-5-yl)-N-ethylacetamide] gave an EC50 of 0.013 µM.
